{"source": "patent US20230085307A1", "about": "“PYRIDAZINONE COMPOUND AND HERBICIDE” (NISSAN CHEMICAL CORPORATION, priority 2019, published 2023)", "key": {"persian speedwell": {"test_system": "persian speedwell", "assay": "Test Example 5: herbicidal effect by foliage application, plastic box (Table 20, symbol R)", "assay_type": "in vivo, Persian speedwell (Veronica persica)", "conditions": "foliage application, 320 g/ha, three weeks after application", "method_in_brief": "(§1)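 Foliar spray test: emulsion formulation diluted in water to a set application rate, sprayed onto 14-day-old plants raised in diluvial soil at 25° C to 30° C under glass. Both herbicidal effect and crop effect rated visually three weeks later.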"}, "false cleavers": {"test_system": "false cleavers", "assay": "Test Example 4: herbicidal effect by soil treatment (Table 19, symbol Q)", "assay_type": "in vivo, false cleavers (Galium spurium)", "conditions": "amount of applied herbicide 320 g/ha", "method_in_brief": "(§2)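 Step 1: sow seeds in sterilized diluvial soil, cover ~1.5 cm. Step 2: spray diluted emulsion onto soil surface at predetermined rate. Step 3: greenhouse, 25–30° C, three weeks. Step 4: grade effect on each plant by earlier criteria.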"}, "barnyard grass [1]": {"test_system": "barnyard grass", "assay": "Test Example 4: herbicidal effect by soil treatment (Table 19, symbol H)", "assay_type": "in vivo, barnyard grass (Echinochloa crus-galli)", "conditions": "amount of applied herbicide 320 g/ha", "method_in_brief": "as §2"}, "velvetleaf [2]": {"test_system": "velvetleaf", "assay": "Test Example 4: herbicidal effect by soil treatment (Table 19, symbol M)", "assay_type": "in vivo, velvetleaf (Abutilon theophrasti)", "conditions": "amount of applied herbicide 320 g/ha", "method_in_brief": "as §2"}, "Italian ryegrass [3]": {"test_system": "Italian ryegrass", "assay": "Test Example 5: herbicidal effect by foliage application, plastic box (Table 20, symbol K)", "assay_type": "in vivo, Italian ryegrass (Lolium multiflorum)", "conditions": "foliage application, 320 g/ha, three weeks after application", "method_in_brief": "as §1"}, "Italian ryegrass [4]": {"test_system": "Italian ryegrass", "assay": "Test Example 4: herbicidal effect by soil treatment (Table 19, symbol K)", "assay_type": "in vivo, Italian ryegrass (Lolium multiflorum)", "conditions": "amount of applied herbicide 320 g/ha", "method_in_brief": "as §2"}, "redroot pigweed [5]": {"test_system": "redroot pigweed", "assay": "Test Example 4: herbicidal effect by soil treatment (Table 19, symbol N)", "assay_type": "in vivo, redroot pigweed (Amaranthus retroflexus)", "conditions": "amount of applied herbicide 320 g/ha", "method_in_brief": "as §2"}, "chickweed": {"test_system": "chickweed", "assay": "Test Example 5: herbicidal effect by foliage application, plastic box (Table 20, symbol P)", "assay_type": "in vivo, common chickweed (Stellaria media)", "conditions": "foliage application, 320 g/ha, three weeks after application", "method_in_brief": "as §1"}, "blackgrass [6]": {"test_system": "blackgrass", "assay": "Test Example 4: herbicidal effect by soil treatment (Table 19, symbol J)", "assay_type": "in vivo, blackgrass (Alopecurus myosuroides)", "conditions": "amount of applied herbicide 320 g/ha", "method_in_brief": "as §2"}, "southern crabgrass [7]": {"test_system": "southern crabgrass", "assay": "Test Example 4: herbicidal effect by soil treatment (Table 19, symbol F)", "assay_type": "in vivo, southern crabgrass (Digitaria ciliaris)", "conditions": "amount of applied herbicide 320 g/ha", "method_in_brief": "as §2"}, "lambsquarters [8]": {"test_system": "lambsquarters", "assay": "Test Example 5: herbicidal effect by foliage application, plastic box (Table 20, symbol O)", "assay_type": "in vivo, lambsquarters (Chenopodium album)", "conditions": "foliage application, 320 g/ha, three weeks after application", "method_in_brief": "as §1"}, "green foxtail [9]": {"test_system": "green foxtail", "assay": "Test Example 5: herbicidal effect by foliage application, plastic box (Table 20, symbol G)", "assay_type": "in vivo, green foxtail (Setaria viridis)", "conditions": "foliage application, 320 g/ha, three weeks after application", "method_in_brief": "as §1"}, "velvetleaf [10]": {"test_system": "velvetleaf", "assay": "Test Example 5: herbicidal effect by foliage application, plastic box (Table 20, symbol M)", "assay_type": "in vivo, velvetleaf (Abutilon theophrasti)", "conditions": "foliage application, 320 g/ha, three weeks after application", "method_in_brief": "as §1"}, "green foxtail [11]": {"test_system": "green foxtail", "assay": "Test Example 4: herbicidal effect by soil treatment (Table 19, symbol G)", "assay_type": "in vivo, green foxtail (Setaria viridis)", "conditions": "amount of applied herbicide 320 g/ha", "method_in_brief": "as §2"}, "Chinese sprangletop": {"test_system": "Chinese sprangletop", "assay": "Test Example 3: herbicidal effect by foliage application, Wagner pot (Table 18, symbol D)", "assay_type": "in vivo, chinese sprangletop (Leptochloa chinensis)", "conditions": "320 g/ha", "method_in_brief": "(§3)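 Plants were sown in alluvial soil held under 0.1–0.5 cm standing water and grown 14 days in a greenhouse at 25–30 °C. An emulsifiable formulation, water-diluted to the set dose, was then sprayed onto the foliage, and effects were scored three weeks later using previously defined criteria.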"}, "wild oat [12]": {"test_system": "wild oat", "assay": "Test Example 4: herbicidal effect by soil treatment (Table 19, symbol I)", "assay_type": "in vivo, wild oat (Avena fatua)", "conditions": "amount of applied herbicide 320 g/ha", "method_in_brief": "as §2"}, "southern crabgrass [13]": {"test_system": "southern crabgrass", "assay": "Test Example 5: herbicidal effect by foliage application, plastic box (Table 20, symbol F)", "assay_type": "in vivo, southern crabgrass (Digitaria ciliaris)", "conditions": "foliage application, 320 g/ha, three weeks after application", "method_in_brief": "as §1"}, "barnyard grass [14]": {"test_system": "barnyard grass", "assay": "Test Example 5: herbicidal effect by foliage application, plastic box (Table 20, symbol H)", "assay_type": "in vivo, barnyard grass (Echinochloa crus-galli)", "conditions": "foliage application, 320 g/ha, three weeks after application", "method_in_brief": "as §1"}, "lambsquarters [15]": {"test_system": "lambsquarters", "assay": "Test Example 4: herbicidal effect by soil treatment (Table 19, symbol O)", "assay_type": "in vivo, lambsquarters (Chenopodium album)", "conditions": "amount of applied herbicide 320 g/ha", "method_in_brief": "as §2"}, "blackgrass [16]": {"test_system": "blackgrass", "assay": "Test Example 5: herbicidal effect by foliage application, plastic box (Table 20, symbol J)", "assay_type": "in vivo, blackgrass (Alopecurus myosuroides)", "conditions": "foliage application, 320 g/ha, three weeks after application", "method_in_brief": "as §1"}, "barnyard grass [17]": {"test_system": "barnyard grass", "assay": "Test Example 3: herbicidal effect by foliage application, Wagner pot (Table 18, symbol H)", "assay_type": "in vivo, barnyard grass (Echinochloa crus-galli)", "conditions": "320 g/ha", "method_in_brief": "as §3"}, "rice flat sedge": {"test_system": "rice flat sedge", "assay": "Test Example 3: herbicidal effect by foliage application, Wagner pot (Table 18, symbol E)", "assay_type": "in vivo, rice flat sedge (Cyperus iria)", "conditions": "320 g/ha", "method_in_brief": "as §3"}, "windgrass [18]": {"test_system": "windgrass", "assay": "Test Example 5: herbicidal effect by foliage application, plastic box (Table 20, symbol L)", "assay_type": "in vivo, windgrass (Apera spica-venti)", "conditions": "foliage application, 320 g/ha, three weeks after application", "method_in_brief": "as §1"}, "redroot pigweed [19]": {"test_system": "redroot pigweed", "assay": "Test Example 5: herbicidal effect by foliage application, plastic box (Table 20, symbol N)", "assay_type": "in vivo, redroot pigweed (Amaranthus retroflexus)", "conditions": "foliage application, 320 g/ha, three weeks after application", "method_in_brief": "as §1"}, "windgrass [20]": {"test_system": "windgrass", "assay": "Test Example 4: herbicidal effect by soil treatment (Table 19, symbol L)", "assay_type": "in vivo, windgrass (Apera spica-venti)", "conditions": "amount of applied herbicide 320 g/ha", "method_in_brief": "as §2"}, "wild oat [21]": {"test_system": "wild oat", "assay": "Test Example 5: herbicidal effect by foliage application, plastic box (Table 20, symbol I)", "assay_type": "in vivo, wild oat (Avena fatua)", "conditions": "foliage application, 320 g/ha, three weeks after application", "method_in_brief": "as §1"}}}
{"smiles": "Cn1ncc(O)c(-c2c(-c3ccc(F)cc3)sc3ccccc23)c1=O", "note": "[1-001]", "values": [{"measurement": "herbicidal effect grade, R: persian speedwell", "setting": "persian speedwell", "value": "3 (Herbicidal rate of 40% or more and less than 70%)"}, {"measurement": "herbicidal effect rating, Q: false cleavers", "setting": "false cleavers", "value": "0 (Herbicidal rate of 5% or less (almost no effect))"}, {"measurement": "herbicidal effect rating, H: barnyard grass", "setting": "barnyard grass [1]", "value": "0 (Herbicidal rate of 5% or less (almost no effect))"}, {"measurement": "herbicidal effect rating, M: velvetleaf", "setting": "velvetleaf [2]", "value": "0 (Herbicidal rate of 5% or less (almost no effect))"}, {"measurement": "herbicidal effect grade, K: Italian ryegrass", "setting": "Italian ryegrass [3]", "value": "0 (Herbicidal rate of 5% or less (almost no effect))"}, {"measurement": "herbicidal effect rating, K: Italian ryegrass", "setting": "Italian ryegrass [4]", "value": "0 (Herbicidal rate of 5% or less (almost no effect))"}, {"measurement": "herbicidal effect rating, N: redroot pigweed", "setting": "redroot pigweed [5]", "value": "4 (Herbicidal rate of 70% or more and less than 90%)"}, {"measurement": "herbicidal effect grade, P: chickweed", "setting": "chickweed", "value": "5 (Herbicidal rate of 90% or more (almost completely withered))"}, {"measurement": "herbicidal effect rating, J: blackgrass", "setting": "blackgrass [6]", "value": "0 (Herbicidal rate of 5% or less (almost no effect))"}, {"measurement": "herbicidal effect rating, F: southern crabgrass", "setting": "southern crabgrass [7]", "value": "0 (Herbicidal rate of 5% or less (almost no effect))"}, {"measurement": "herbicidal effect grade, O: lambsquarters", "setting": "lambsquarters [8]", "value": "2 (Herbicidal rate of 20% or more and less than 40%)"}, {"measurement": "herbicidal effect grade, G: green foxtail", "setting": "green foxtail [9]", "value": "0 (Herbicidal rate of 5% or less (almost no effect))"}, {"measurement": "herbicidal effect grade, M: velvetleaf", "setting": "velvetleaf [10]", "value": "4 (Herbicidal rate of 70% or more and less than 90%)"}, {"measurement": "herbicidal effect rating, G: green foxtail", "setting": "green foxtail [11]", "value": "0 (Herbicidal rate of 5% or less (almost no effect))"}, {"measurement": "herbicidal effect on D (Chinese sprangletop), rating 0-5", "setting": "Chinese sprangletop", "value": "0 (Herbicidal rate of 5% or less (almost no effect))"}, {"measurement": "herbicidal effect rating, I: wild oat", "setting": "wild oat [12]", "value": "0 (Herbicidal rate of 5% or less (almost no effect))"}, {"measurement": "herbicidal effect grade, F: southern crabgrass", "setting": "southern crabgrass [13]", "value": "0 (Herbicidal rate of 5% or less (almost no effect))"}, {"measurement": "herbicidal effect grade, H: barnyard grass", "setting": "barnyard grass [14]", "value": "0 (Herbicidal rate of 5% or less (almost no effect))"}, {"measurement": "herbicidal effect rating, O: lambsquarters", "setting": "lambsquarters [15]", "value": "0 (Herbicidal rate of 5% or less (almost no effect))"}, {"measurement": "herbicidal effect grade, J: blackgrass", "setting": "blackgrass [16]", "value": "0 (Herbicidal rate of 5% or less (almost no effect))"}, {"measurement": "herbicidal effect on H (barnyard grass), rating 0-5", "setting": "barnyard grass [17]", "value": "3 (Herbicidal rate of 40% or more and less than 70%)"}, {"measurement": "herbicidal effect on E (rice flat sedge), rating 0-5", "setting": "rice flat sedge", "value": "5 (Herbicidal rate of 90% or more (almost completely withered))"}, {"measurement": "herbicidal effect grade, L: windgrass", "setting": "windgrass [18]", "value": "0 (Herbicidal rate of 5% or less (almost no effect))"}, {"measurement": "herbicidal effect grade, N: redroot pigweed", "setting": "redroot pigweed [19]", "value": "1 (Herbicidal rate of 5% or more and less than 20%)"}, {"measurement": "herbicidal effect rating, L: windgrass", "setting": "windgrass [20]", "value": "0 (Herbicidal rate of 5% or less (almost no effect))"}, {"measurement": "herbicidal effect grade, I: wild oat", "setting": "wild oat [21]", "value": "0 (Herbicidal rate of 5% or less (almost no effect))"}]}
